Reference: patent US20100298141A1, “SUBSTITUTED PYRIDINE N-OXIDE HERBICIDES” (E. I. DU PONT DE NEMOURS AND COMPANY, priority 2007, published 2010)

Key:
velvetleaf [1] = assay: Test A pre-/postemergence greenhouse test; format: in vivo, Abutilon theophrasti; conditions: for Plant response rating, Velvetleaf: 0 to 100 scale where 0 is no effect and 100 is complete control; for Velvetleaf plant response rating: 0 to 100 scale
Procedure, shortened: (§1)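 Pots of loam–sand soil sown with the test species are sprayed preemergence on the soil surface; emerged seedlings (1–2 leaves, 2–10 cm) are sprayed postemergence at the same time. The vehicle is a non-phytotoxic solvent mixture with surfactant. Injury is scored visually after ~10 d in greenhouse.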

barnyardgrass = assay: Test A pre-/postemergence greenhouse test; format: in vivo, Echinochloa crus-galli; conditions: for Plant response rating, Barnyardgrass: 0 to 100 scale where 0 is no effect and 100 is complete control; for Barnyardgrass plant response rating: 0 to 100 scale
Procedure, shortened: as §1

kochia = assay: Test C pre-/postemergence test; format: in vivo, Kochia scoparia
Excerpt: (§2) Seeds of plant species selected from blackgrass (Alopecurus myosuroides), downy brome (Bromus tectorum), green foxtail (Setaria viridis), Italian ryegrass (Lolium multiflorum), wheat (Triticum aestivum), wild oat (Avena fatua), catchweed bedstraw (Galium aparine), Russian thistle (Salsola kali), […] (Cynodon dactylon), Surinam grass (Brachiaria decumbens), cocklebur (Xanthium strumarium), corn (Zea mays), crabgrass (Digitaria sanguinalis), woolly cupgrass (Eriochloa villosa), giant foxtail (Setaria faberii), Goosegrass (Eleusin indica), johnsongrass (Sorghum halepense), kochia (Kochia scoparia), lambsquarters (Chenopodium album), morningglory (Ipomoea coccinea), eastern black nightshade (Solanum ptycanthum), yellow nutsedge (Cyperus esculentus), pigweed (Amaranthus retroflexus), common ragweed (Ambrosia elation), soybean (Glycine max), common (oilseed) sunflower (Helianthus annuus), and velvetleaf (Abutilon theophrasti) were planted and treated preemergence with test chemicals formulated in a non-phytotoxic solvent mixture which included a surfactant. At the same time, plants selected from these crop and weed species and also winter barley (Hordeum vulgare), canarygrass (Phalaris minor), and chickweed (Stellaria media) were treated with postemergence applications of some of the test chemicals formulated in the same manner. Plants ranged in height from 2 to 18 cm (1- to 4-leaf stage) for postemergence treatments. […] At time of treatment, test pots were flooded to 3 cm above the soil surface, treated by application of test compounds directly to the paddy water, and then maintained at that water depth for the duration of the test. […] A dash (-) response means no test result.

velvetleaf [2] = assay: Test C pre-/postemergence test; format: in vivo, Abutilon theophrasti
Excerpt: as §2

duck salad = assay: Test C flooded paddy test; format: in vivo, Heteranthera limosa; conditions: Flood
Procedure, shortened: (§3)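 Ratings were visual and made relative to untreated controls after 13 to 15 greenhouse days.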

green foxtail = assay: Test C pre-/postemergence test; format: in vivo, Setaria viridis
Excerpt: as §2

Surinam grass = assay: Test C pre-/postemergence test; format: in vivo, Brachiaria decumbens
Excerpt: as §2

giant foxtail = assay: Test C pre-/postemergence test; format: in vivo, Setaria faberii
Excerpt: as §2

downy brome = assay: Test C pre-/postemergence test; format: in vivo, Bromus tectorum
Excerpt: as §2

crabgrass = assay: Test C pre-/postemergence test; format: in vivo, Digitaria sanguinalis
Excerpt: as §2

johnsongrass = assay: Test C pre-/postemergence test; format: in vivo, Sorghum halepense
Excerpt: as §2

redroot pigweed = assay: Test A pre-/postemergence greenhouse test; format: in vivo, Amaranthus retroflexus; conditions: for Plant response rating, Pigweed: 0 to 100 scale where 0 is no effect and 100 is complete control; for Pigweed plant response rating: 0 to 100 scale
Procedure, shortened: as §1

wild oat = assay: Test C pre-/postemergence test; format: in vivo, Avena fatua
Excerpt: as §2

rice = assay: Test C flooded paddy test; format: in vivo, Oryza sativa; conditions: Flood
Procedure, shortened: as §3

common ragweed = assay: Test C pre-/postemergence test; format: in vivo, Ambrosia elation
Excerpt: as §2

[3] = Postemergence, 500 g ai/ha, 0 is no effect, 100 is complete control
[4] = Preemergence, 125 g ai/ha, 0 no effect, 100 complete control
[5] = 62 g ai/ha, Preemergence, scale 0 to 100
[6] = 125 g ai/ha, preemergence, scale 0 (no effect) to 100 (complete control)
[7] = Preemergence, 31 g ai/ha, scale 0 to 100 (0 no effect, 100 complete control)
[8] = preemergence, 250 g ai/ha, scale 0 (no effect) to 100 (complete control)
[9] = 62 g ai/ha, scale 0 to 100 (0 no effect, 100 complete control)
[10] = 250 g ai/ha, scale 0 to 100, 0 no effect, 100 complete control, 13 to 15 days

CCn1nc(C(F)(F)F)c(CS(=O)(=O)c2cccc[n+]2[O-])c1OCC(F)(F)F [Compound 63]
Plant response rating, Velvetleaf (velvetleaf [1]; Postemergence, 125 g ai/ha): 60
Velvetleaf plant response rating (velvetleaf [1]; [3]): 80
Velvetleaf plant response rating (velvetleaf [1]; [4]): 60
Plant response rating, Velvetleaf (velvetleaf [1]; Preemergence, 500 g ai/ha): 100
Plant response rating, Barnyardgrass (barnyardgrass; Postemergence, 125 g ai/ha): 90
Barnyardgrass plant response rating (barnyardgrass; [3]): 90
Barnyardgrass plant response rating (barnyardgrass; [4]): 90
Plant response rating, Barnyardgrass (barnyardgrass; Preemergence, 500 g ai/ha): 100
Kochia plant response rating (kochia; [5]): 100
Kochia plant response rating (kochia; [6]): 100
Plant response rating, Kochia (kochia; [7]): 100
Kochia plant response rating (kochia; [8]): 100
Velvetleaf plant response rating (velvetleaf [2]; [5]): 80
Velvetleaf plant response rating (velvetleaf [2]; [6]): 85
Plant response rating, Velvetleaf (velvetleaf [2]; [7]): 50
Velvetleaf plant response rating (velvetleaf [2]; [8]): 100
Plant response rating, Ducksalad (duck salad; [9]): 0
Plant response rating, Ducksalad (duck salad; [10]): 75
Foxtail, Green plant response rating (green foxtail; [5]): 100
Foxtail, Green plant response rating (green foxtail; [6]): 100
Plant response rating, Foxtail, Green (green foxtail; [7]): 95
Foxtail, Green plant response rating (green foxtail; [8]): 100
Surinam Grass plant response rating (Surinam grass; [5]): 100
Surinam Grass plant response rating (Surinam grass; [6]): 100
Plant response rating, Surinam Grass (Surinam grass; [7]): 100
Surinam Grass plant response rating (Surinam grass; [8]): 100
Foxtail, Giant plant response rating (giant foxtail; [5]): 100
Foxtail, Giant plant response rating (giant foxtail; [6]): 100
Plant response rating, Foxtail, Giant (giant foxtail; [7]): 100
Foxtail, Giant plant response rating (giant foxtail; [8]): 100
Bromegrass, Downy plant response rating (downy brome; [5]): 70
Bromegrass, Downy plant response rating (downy brome; [6]): 98
Plant response rating, Bromegrass, Downy (downy brome; [7]): 40
Bromegrass, Downy plant response rating (downy brome; [8]): 100
Crabgrass, Large plant response rating (crabgrass; [5]): 100
Crabgrass, Large plant response rating (crabgrass; [6]): 100
Plant response rating, Crabgrass, Large (crabgrass; [7]): 100
Crabgrass, Large plant response rating (crabgrass; [8]): 100
Johnsongrass plant response rating (johnsongrass; [5]): 85
Plant response rating, Johnsongrass (johnsongrass; [7]): 85
Johnsongrass plant response rating (johnsongrass; [8]): 98
Plant response rating, Pigweed (redroot pigweed; Postemergence, 125 g ai/ha): 50
Pigweed plant response rating (redroot pigweed; [3]): 80
Pigweed plant response rating (redroot pigweed; [4]): 70
Plant response rating, Pigweed (redroot pigweed; Preemergence, 500 g ai/ha): 100
Oat, Wild plant response rating (wild oat; [5]): 60
Oat, Wild plant response rating (wild oat; [6]): 85
Plant response rating, Oat, Wild (wild oat; [7]): 50
Oat, Wild plant response rating (wild oat; [8]): 95
Plant response rating, Rice (rice; [9]): 30
Plant response rating, Rice (rice; [10]): 35
Ragweed plant response rating (common ragweed; [5]): 100
Ragweed plant response rating (common ragweed; [6]): 100
Plant response rating, Ragweed (common ragweed; [7]): 90
Ragweed plant response rating (common ragweed; [8]): 100
